Experimental data reported in patent US12559529B2, “NPY2 receptor agonists” (Boehringer Ingelheim International GmbH, priority 2019, dated 2026).

How the values were obtained:
normal NMRI mice = test: Effect on acute food intake in normal NMRI mice; type: in vivo; settings: male NMRI mice, 10 nmol/kg subcutaneously once
Summary of the method: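 A single 10 nmol/kg s.c. peptide dose was given 1 h before lights-off to male NMRI mice fasted from 6 h before the night phase (n=7-8). Intake was recorded continuously by microchip-identified HM-2 feeding channels. Values are normalized to vehicle controls (50 mM phosphate buffer pH7 with 5% Mannitol).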

[1] = target: T1, Human Neuropeptide Y2 Receptor (Homo sapiens, UniProt P49146); test: Radioligand binding competition assay (RLB); settings: Table 3; human 125I-PYY (1-36) 0.02 nM, Y2 receptor membranes; read-out: Ki
T1 construct: purchased CHEMICON HTS066M
T1 sequence (P49146 1-381): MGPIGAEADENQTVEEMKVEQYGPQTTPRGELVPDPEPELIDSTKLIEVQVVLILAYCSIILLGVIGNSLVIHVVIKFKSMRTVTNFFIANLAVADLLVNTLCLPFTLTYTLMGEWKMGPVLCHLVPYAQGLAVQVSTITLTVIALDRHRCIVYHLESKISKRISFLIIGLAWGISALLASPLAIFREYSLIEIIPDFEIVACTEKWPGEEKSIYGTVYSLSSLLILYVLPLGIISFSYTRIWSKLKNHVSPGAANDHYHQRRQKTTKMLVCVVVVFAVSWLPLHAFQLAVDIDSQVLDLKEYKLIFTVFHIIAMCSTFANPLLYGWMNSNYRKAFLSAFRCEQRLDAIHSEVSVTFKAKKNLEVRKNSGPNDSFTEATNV
Summary of the method: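 Membranes (0.5 μg/well) and test peptides, serially diluted from 1 mM DMSO stocks, were incubated 2 hours at room temperature in HEPES buffer pH 7.4 with Mg, Ca and ovalbumin.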

SMILES	Ki [1]	Acute Food Intake 24 h [% vehicle] (normal NMRI mice)
CC(C)CC(=O)N[C@@H](C)C(=O)N1CCC[C@H]1C(=O)N[C@@H](CCC(=O)O)C(=O)N[C@@H](CCCCNC(=O)COCCOCCNC(=O)COCCOCCNC(=O)CC[C@H](NC(=O)CCCCCCCCCCCCCCCCC(=O)O)C(=O)O)C(=O)N1CCC[C@H]1C(=O)N[C@@H](CCC(=O)O)C(=O)N[C@@H](CCC(=O)O)C(=O)N[C@@H](C)C(=O)N[C@@H](C)C(=O)N[C@@H](CO)C(=O)N1CCC[C@H]1C(=O)N[C@@H](CCC(=O)O)C(=O)N[C@@H](CCC(=O)O)C(=O)N[C@@H](CC(C)C)C(=O)N[C@@H](CCC(N)=O)C(=O)N[C@@H](CCCNC(=N)N)C(=O)N[C@@H](Cc1ccc(O)cc1)C(=O)N[C@@H](Cc1ccc(O)cc1)C(=O)N[C@H](C(=O)N[C@@H](C)C(=O)N[C@@H](CC(C)C)C(=O)N[C@@H](CCCNC(=N)N)C(=O)N[C@@H](Cc1c[nH]cn1)C(=O)N[C@@H](Cc1ccc(O)cc1)C(=O)N[C@@H](Cc1ccc(O)cc1)C(=O)N[C@@H](CC(N)=O)C(=O)N[C@@H](Cc1c[nH]c2ccccc12)C(=O)N[C@@H](CC(C)C)C(=O)N[C@H](C(=O)N[C@@H](CCCNC(=N)N)C(=O)N[C@@H](CCC(N)=O)C(=O)N[C@@H](CCCNC(=N)N)C(=O)N[C@@H](Cc1ccc(O)cc1)C(N)=O)[C@@H](C)O)C(C)C [Compound 163, N{alpha-4}-(3-methylbutanoyl)-N{epsilon-7}-[2-(2-{2-[2-(2-{2-[(4S)-4-carboxy-4-(17-carboxyheptadecanamido)butanamido]ethoxy}ethoxy)acetamido]ethoxy}ethoxy)acetamido]-[4A,7K,9E,11A,18Q,22V,23A,28Y,30W,31L]hPYY (4-36)]	0.96 nM	50 % vehicle
CC(C)CC(=O)N[C@@H](C)C(=O)N1CCC[C@H]1C(=O)N[C@@H](C)C(=O)N[C@@H](CCCCNC(=O)COCCOCCNC(=O)COCCOCCNC(=O)CC[C@H](NC(=O)CCCCCCCCCCCCCCCCC(=O)O)C(=O)O)C(=O)N1CCC[C@H]1C(=O)N[C@@H](CCC(=O)O)C(=O)N[C@@H](CCC(=O)O)C(=O)N[C@@H](CC(=O)O)C(=O)N[C@@H](C)C(=O)N[C@@H](CO)C(=O)N1CCC[C@H]1C(=O)N[C@@H](CCC(=O)O)C(=O)N[C@@H](CCC(=O)O)C(=O)N[C@@H](CC(C)C)C(=O)N[C@@H](CCC(N)=O)C(=O)N[C@@H](CCCNC(=N)N)C(=O)N[C@@H](Cc1ccc(O)cc1)C(=O)N[C@@H](Cc1ccc(O)cc1)C(=O)N[C@H](C(=O)N[C@@H](CCC(=O)O)C(=O)N[C@@H](CC(C)C)C(=O)N[C@@H](CCCNC(=N)N)C(=O)N[C@@H](Cc1c[nH]cn1)C(=O)N[C@@H](Cc1ccc(O)cc1)C(=O)N[C@@H](Cc1ccc(O)cc1)C(=O)N[C@@H](CC(N)=O)C(=O)N[C@@H](Cc1c[nH]c2ccccc12)C(=O)N[C@@H](CC(C)C)C(=O)N[C@H](C(=O)N[C@@H](CCCNC(=N)N)C(=O)N[C@@H](CCC(N)=O)C(=O)N[C@@H](CCCNC(=N)N)C(=O)N[C@@H](Cc1ccc(O)cc1)C(N)=O)[C@@H](C)O)C(C)C [Compound 173, N{alpha-4}-(3-methylbutanoyl)-N{epsilon-7}-[2-(2-{2-[2-(2-{2-[(4S)-4-carboxy-4-(17-carboxyheptadecanamido)butanamido]ethoxy}ethoxy)acetamido]ethoxy}ethoxy)acetamido]-[4A,6A,7K,9E,18Q,22V,23E,28Y,30W,31L]hPYY (4-36)]	1.71 nM	49 % vehicle
CC(C)CC(=O)N[C@@H](C)C(=O)N1CCC[C@H]1C(=O)N[C@@H](C)C(=O)N[C@@H](CCCCNC(=O)COCCOCCNC(=O)COCCOCCNC(=O)CC[C@H](NC(=O)CCCCCCCCCCCCCCCCC(=O)O)C(=O)O)C(=O)N1CCC[C@H]1C(=O)N[C@@H](CCC(=O)O)C(=O)N[C@@H](CCC(=O)O)C(=O)N[C@@H](CC(=O)O)C(=O)N[C@@H](C)C(=O)N[C@@H](CCC(=O)O)C(=O)N1CCC[C@H]1C(=O)N[C@@H](CCC(=O)O)C(=O)N[C@@H](CCC(=O)O)C(=O)N[C@@H](CC(C)C)C(=O)N[C@@H](CCC(N)=O)C(=O)N[C@@H](CCCNC(=N)N)C(=O)N[C@@H](Cc1ccc(O)cc1)C(=O)N[C@@H](Cc1ccc(O)cc1)C(=O)N[C@H](C(=O)N[C@@H](CO)C(=O)N[C@@H](CC(C)C)C(=O)N[C@@H](CCCNC(=N)N)C(=O)N[C@@H](Cc1c[nH]cn1)C(=O)N[C@@H](Cc1ccc(O)cc1)C(=O)N[C@@H](Cc1ccc(O)cc1)C(=O)N[C@@H](CC(N)=O)C(=O)N[C@@H](Cc1c[nH]c2ccccc12)C(=O)N[C@@H](CC(C)C)C(=O)N[C@H](C(=O)N[C@@H](CCCNC(=N)N)C(=O)N[C@@H](CCC(N)=O)C(=O)N[C@@H](CCCNC(=N)N)C(=O)N[C@@H](Cc1ccc(O)cc1)C(N)=O)[C@@H](C)O)C(C)C [Compound 174, N{alpha-4}-(3-methylbutanoyl)-N{epsilon-7}-[2-(2-{2-[2-(2-{2-[(4S)-4-carboxy-4-(17-carboxyheptadecanamido)butanamido]ethoxy}ethoxy)acetamido]ethoxy}ethoxy)acetamido]-[4A,6A,7K,9E,13E,18Q,22V,28Y,30W,31L]hPYY (4-36)]	3.89 nM	41 % vehicle

More lines, main results first:

Ki [1]	SMILES	Acute Food Intake 24 h [% vehicle] (normal NMRI mice)
3.05 nM	CC(C)CC(=O)N[C@@H](C)C(=O)N1CCC[C@H]1C(=O)N[C@@H](CCC(=O)O)C(=O)N[C@@H](CCCCNC(=O)COCCOCCNC(=O)COCCOCCNC(=O)CC[C@H](NC(=O)CCCCCCCCCCCCCCCCC(=O)O)C(=O)O)C(=O)N1CCC[C@H]1C(=O)N[C@@H](CCC(=O)O)C(=O)N[C@@H](CCC(=O)O)C(=O)N[C@@H](CC(=O)O)C(=O)N[C@@H](C)C(=O)N[C@@H](CO)C(=O)N[C@@H](CCC(=O)O)C(=O)N[C@@H](CCC(=O)O)C(=O)N[C@@H](CCC(=O)O)C(=O)N[C@@H](CC(C)C)C(=O)N[C@@H](CCC(N)=O)C(=O)N[C@@H](CCCNC(=N)N)C(=O)N[C@@H](Cc1ccc(O)cc1)C(=O)N[C@@H](Cc1ccc(O)cc1)C(=O)N[C@H](C(=O)N[C@@H](CO)C(=O)N[C@@H](CC(C)C)C(=O)N[C@@H](CCCNC(=N)N)C(=O)N[C@@H](Cc1c[nH]cn1)C(=O)N[C@@H](Cc1ccc(O)cc1)C(=O)N[C@@H](Cc1ccc(O)cc1)C(=O)N[C@@H](CC(N)=O)C(=O)N[C@@H](Cc1c[nH]c2ccccc12)C(=O)N[C@@H](CC(C)C)C(=O)N[C@H](C(=O)N[C@@H](CCCNC(=N)N)C(=O)N[C@@H](CCC(N)=O)C(=O)N[C@@H](CCCNC(=N)N)C(=O)N[C@@H](Cc1ccc(O)cc1)C(N)=O)[C@@H](C)O)C(C)C [Compound 176, N{alpha-4}-(3-methylbutanoyl)-N{epsilon-7}-[2-(2-{2-[2-(2-{2-[(4S)-4-carboxy-4-(17-carboxyheptadecanamido)butanamido]ethoxy}ethoxy)acetamido]ethoxy}ethoxy)acetamido]-[4A,7K,9E,14E,18Q,22V,28Y,30W,31L]hPYY (4-36)]	52 % vehicle
3.85 nM	CC(C)CC(=O)N[C@@H](C)C(=O)N1CCC[C@H]1C(=O)N[C@@H](CCC(=O)O)C(=O)N[C@@H](CCCCNC(=O)COCCOCCNC(=O)COCCOCCNC(=O)CC[C@H](NC(=O)CCCCCCCCCCCCCCCCC(=O)O)C(=O)O)C(=O)N1CCC[C@H]1C(=O)N[C@@H](CCC(=O)O)C(=O)N[C@@H](CCC(=O)O)C(=O)N[C@@H](CC(=O)O)C(=O)N[C@@H](C)C(=O)N[C@@H](CO)C(=O)N1CCC[C@H]1C(=O)N[C@@H](CCC(=O)O)C(=O)N[C@@H](CCC(=O)O)C(=O)N[C@H](C(=O)N[C@@H](CCC(N)=O)C(=O)N[C@@H](CCC(N)=O)C(=O)N[C@@H](Cc1ccc(O)cc1)C(=O)N[C@@H](Cc1ccc(O)cc1)C(=O)N[C@H](C(=O)N[C@@H](CO)C(=O)N[C@@H](CC(C)C)C(=O)N[C@@H](CCCNC(=N)N)C(=O)N[C@@H](Cc1c[nH]cn1)C(=O)N[C@@H](Cc1ccc(O)cc1)C(=O)N[C@@H](Cc1ccc(O)cc1)C(=O)N[C@@H](CC(N)=O)C(=O)N[C@@H](Cc1c[nH]c2ccccc12)C(=O)N[C@@H](CC(C)C)C(=O)N[C@H](C(=O)N[C@@H](CCCNC(=N)N)C(=O)N[C@@H](CCC(N)=O)C(=O)N[C@@H](CCCNC(=N)N)C(=O)N[C@@H](Cc1ccc(O)cc1)C(N)=O)[C@@H](C)O)C(C)C)[C@@H](C)O [Compound 180, N{alpha-4}-(3-methylbutanoyl)-N{epsilon-7}-[2-(2-{2-[2-(2-{2-[(4S)-4-carboxy-4-(17-carboxyheptadecanamido)butanamido]ethoxy}ethoxy)acetamido]ethoxy}ethoxy)acetamido]-[4A,7K,9E,17T,18Q,19Q,22V,28Y,30W,31L]hPYY (4-36)]	74 % vehicle
